Reference: patent US10918645B2 (LIFEARC, priority 2016, dated 2021)

What was measured:
Type in all cases: biochemical
Details in all cases: 1 μM inhibitor concentration
ERK2 = ERK2 (Homo sapiens (Human), UniProt P28482); test: ERK2 kinase selectivity assay
Description: (§1) MAPK/ERK2 (5-20 mU diluted in 50 mM Tris pH 7.5, 0.1 mM EGTA, 0.1 mM Na3VO4, 0.1% b-mercaptoethanol, 1 mg/ml BSA) is assayed against MBP in a final volume of 25.5 μl in 25 mM Tris pH 7.5, 0.1 mM EGTA, 0.33 mg/ml MBP, 10 mM magnesium acetate and 0.05 mM [33P-g-ATP](500-1000 cpm/pmole) and incubated for 30 min at room temperature. Assays are stopped by addition of 5 μl of 0.5 M (3%) orthophosphoric acid and then harvested onto P81 Unifilter plates with a wash buffer of 50 mM orthophosphoric acid.

PKBb = PKBb (Homo sapiens (Human), UniProt P31751, S474D); test: PKBb kinase selectivity assay
Description: as §1, with “ΔPH-PKBbeta-S474D” for “MAPK/ERK2”, “EGTA,” for “EGTA, 0.1 mM Na3VO4,”, “a modified Crosstide peptide ([…])” for “MBP”, “containing 50” for “in 25”, “0.05% b-mercaptoethanol, 30 μM substrate peptide,” for “0.1 mM EGTA, 0.33 mg/ml MBP,”, “[33P-g-ATP](50-1000” for “[33P-g-ATP](500-1000”

CHK2 = CHK2 (Homo sapiens (Human), UniProt O96017); test: CHK2 kinase selectivity assay
Description: CHK2 (5-20 mU diluted in 20 mM MOPS pH 7.5, 1 mM EDTA, 0.1% b-mercaptoethanol, 0.01% Brij-35, 5% glycerol, 1 mg/ml BSA) is assayed against CHKtide substrate peptide ([…]) in a final volume of 25.5 μl containing 8 mM MOPS pH 7.0, 0.2 mM EDTA, 200 μM CHKtide, 10 mM magnesium acetate and 0.02 mM [33P-g-ATP](50-1000 cpm/pmole) and incubated for 30 min at room temperature Assays are stopped by addition of 5 μl of 0.5 M (3%) orthophosphoric acid and then harvested onto P81 Unifilter plates with a wash buffer of 50 mM orthophosphoric acid.

CK2 = CK2 kinase selectivity assay
Description: CK2 (5-20 mU diluted in 20 mM Hepes pH7.5, 0.15 M NaCl, 0.1 mM EGTA, 0.1% Triton X-100, 5 mM DTT, 50% glycerol) is assayed against CKII peptide ([…]) in a final volume of 25.5 μl containing 20 mM Hepes pH 7.5, 0.15 M NaCl, 0.1 mM EDTA, 5 mM DTT, 0.1% Triton-X 100, CKII peptide (0.165 mM), 10 mM magnesium acetate and 0.005 mM [33P-g-ATP](500-1000 cpm/pmole) and incubated for 30 min at room temperature. Assays are stopped by addition of 5 μl of 0.5 M (3%) orthophosphoric acid and then harvested onto P81 Unifilter plates with a wash buffer of 50 mM orthophosphoric acid.

TBK1 = TBK1 (Homo sapiens (Human), UniProt Q9UHD2); test: TBK1 kinase selectivity assay
Description: as §1, with “TBK1 (DU12569)” for “MAPK/ERK2”, “EGTA,” for “EGTA, 0.1 mM Na3VO4, 0.1% b-mercaptoethanol,”, “a substrate peptide ([…])” for “MBP”, “containing 50” for “in 25”, “300 μM substrate peptide,” for “0.1 mM EGTA, 0.33 mg/ml MBP,”, “[33P-g-ATP] (50-1000” for “[33P-g-ATP](500-1000”

Lck = Lck kinase selectivity assay
Description: LCK (5-20 mU diluted in 20 mM MOPS pH 7.5, 1 mM EDTA, 0.01% Brij35, 5% glycerol, 0.1% b-mercaptoethanol, 1 mg/ml BSA) is assayed against Cdc2 peptide ([…]) in a final volume of 25.5 μl containing 50 mM Tris pH 7.5, 0.1 mM EGTA, 0.1 mM Na3Vo4, Cdc2 peptide (0.25 mM), 10 mM magnesium acetate and 0.05 mM [33P-g-ATP](500-1000 cpm/pmole) and incubated for 15 min at room temperature Assays are stopped by addition of 5 μl of 0.5 M (3%) orthophosphoric acid and then harvested onto P81 Unifilter plates with a wash buffer of 50 mM orthophosphoric acid.

BTK = BTK (Homo sapiens (Human), UniProt Q06187); test: BTK kinase selectivity assay
Description: as §1, with “BTK” for “MAPK/ERK2”, “EGTA,” for “EGTA, 0.1 mM Na3VO4, 0.1% b-mercaptoethanol,”, “a substrate peptide ([…])” for “MBP”, “containing 50” for “in 25”, “300 µM substrate peptide,” for “0.1 mM EGTA, 0.33 mg/ml MBP,”, “[33P-g-ATP] (50-1000” for “[33P-g-ATP](500-1000”

TrkA = TrkA (Homo sapiens (Human), UniProt P04629); test: TrkA kinase selectivity assay
Description: TrkA (5-20 mU diluted in 50 mM Tris pH 7.5, 0.1 mM EGTA, 10 mM MnCl, 1 mg/ml BSA) is assayed against a substrate peptide (Poly Glut Tyr) in a final volume of 25.5 μl containing 50 mM Tris pH 7.5, 0.1 mM EGTA, 1 mg/ml substrate peptide, 10 mM magnesium acetate and 0.02 mM [33P-γ-ATP] (50-1000 cpm/pmole) and incubated for 30 min at room temperature. Assays are stopped by addition of 5 μl of 0.5 M (3%) orthophosphoric acid and then harvested onto P81 Unifilter plates with a wash buffer of 50 mM orthophosphoric acid.

Sequence of TBK1 (Q9UHD2 whole entry, species assumed): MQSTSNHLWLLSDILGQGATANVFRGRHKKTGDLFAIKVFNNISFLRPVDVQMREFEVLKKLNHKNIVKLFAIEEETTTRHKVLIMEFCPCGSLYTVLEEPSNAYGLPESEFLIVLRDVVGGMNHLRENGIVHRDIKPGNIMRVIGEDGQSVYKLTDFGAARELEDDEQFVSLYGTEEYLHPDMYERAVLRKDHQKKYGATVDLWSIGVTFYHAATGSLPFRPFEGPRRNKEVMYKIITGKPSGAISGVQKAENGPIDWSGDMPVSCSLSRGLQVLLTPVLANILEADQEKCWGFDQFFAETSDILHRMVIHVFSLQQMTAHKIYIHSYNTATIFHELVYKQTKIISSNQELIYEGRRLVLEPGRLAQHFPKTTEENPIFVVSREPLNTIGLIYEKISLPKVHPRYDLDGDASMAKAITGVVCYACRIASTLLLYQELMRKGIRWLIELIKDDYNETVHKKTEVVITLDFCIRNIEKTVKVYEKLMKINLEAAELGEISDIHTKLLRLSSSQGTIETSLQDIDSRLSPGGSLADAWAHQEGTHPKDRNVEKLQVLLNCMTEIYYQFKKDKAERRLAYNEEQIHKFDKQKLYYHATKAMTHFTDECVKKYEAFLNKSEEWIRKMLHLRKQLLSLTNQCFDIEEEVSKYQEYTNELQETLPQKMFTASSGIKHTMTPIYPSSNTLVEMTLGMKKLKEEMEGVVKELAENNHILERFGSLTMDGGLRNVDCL
Sequence of TrkA (P04629 33-796, species assumed): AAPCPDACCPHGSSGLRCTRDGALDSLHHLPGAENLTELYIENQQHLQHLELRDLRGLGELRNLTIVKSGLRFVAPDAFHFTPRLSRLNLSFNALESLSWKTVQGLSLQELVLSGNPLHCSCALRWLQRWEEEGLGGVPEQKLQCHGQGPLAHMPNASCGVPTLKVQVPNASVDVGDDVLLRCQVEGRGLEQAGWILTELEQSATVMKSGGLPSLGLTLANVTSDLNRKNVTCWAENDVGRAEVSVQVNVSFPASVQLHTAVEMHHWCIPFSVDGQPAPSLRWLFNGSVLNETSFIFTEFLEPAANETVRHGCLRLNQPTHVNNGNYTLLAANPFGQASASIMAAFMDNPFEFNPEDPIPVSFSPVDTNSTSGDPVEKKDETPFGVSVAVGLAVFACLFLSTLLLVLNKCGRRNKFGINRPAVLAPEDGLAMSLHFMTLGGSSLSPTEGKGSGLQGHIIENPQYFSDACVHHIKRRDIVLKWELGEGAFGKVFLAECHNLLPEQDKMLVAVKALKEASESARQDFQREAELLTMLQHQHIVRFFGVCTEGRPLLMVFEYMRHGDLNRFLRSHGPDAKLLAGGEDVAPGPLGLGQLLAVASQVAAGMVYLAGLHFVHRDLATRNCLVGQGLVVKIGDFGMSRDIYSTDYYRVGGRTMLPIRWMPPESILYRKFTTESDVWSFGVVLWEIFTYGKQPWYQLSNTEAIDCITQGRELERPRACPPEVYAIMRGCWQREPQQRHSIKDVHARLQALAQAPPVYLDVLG
Sequence of CHK2 (O96017 whole entry, species assumed): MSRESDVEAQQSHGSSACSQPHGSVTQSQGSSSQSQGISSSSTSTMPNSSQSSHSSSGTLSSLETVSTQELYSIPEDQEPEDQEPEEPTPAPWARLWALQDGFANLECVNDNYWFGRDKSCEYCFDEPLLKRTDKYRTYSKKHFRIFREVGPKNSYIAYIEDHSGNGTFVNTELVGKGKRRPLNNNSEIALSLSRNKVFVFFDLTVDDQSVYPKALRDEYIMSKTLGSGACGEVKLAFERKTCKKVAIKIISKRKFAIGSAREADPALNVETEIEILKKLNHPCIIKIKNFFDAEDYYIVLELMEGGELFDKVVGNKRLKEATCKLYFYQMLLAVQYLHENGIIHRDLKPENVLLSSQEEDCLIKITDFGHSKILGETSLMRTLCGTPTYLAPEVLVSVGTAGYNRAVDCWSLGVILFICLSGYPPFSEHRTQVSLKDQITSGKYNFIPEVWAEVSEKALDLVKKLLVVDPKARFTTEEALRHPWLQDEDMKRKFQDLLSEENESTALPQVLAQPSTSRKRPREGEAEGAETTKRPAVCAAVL
Sequence of PKBb (P31751 120-481 S474D): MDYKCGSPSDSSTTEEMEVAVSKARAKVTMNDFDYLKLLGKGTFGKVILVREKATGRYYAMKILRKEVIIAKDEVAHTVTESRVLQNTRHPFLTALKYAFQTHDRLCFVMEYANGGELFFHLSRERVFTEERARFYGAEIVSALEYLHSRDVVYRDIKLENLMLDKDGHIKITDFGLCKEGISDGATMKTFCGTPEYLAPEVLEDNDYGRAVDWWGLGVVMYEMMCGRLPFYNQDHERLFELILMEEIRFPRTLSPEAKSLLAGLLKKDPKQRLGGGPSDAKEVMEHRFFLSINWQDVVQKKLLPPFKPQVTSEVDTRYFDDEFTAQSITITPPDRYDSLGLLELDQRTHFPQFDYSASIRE
Sequence of BTK (Q06187 whole entry, species assumed): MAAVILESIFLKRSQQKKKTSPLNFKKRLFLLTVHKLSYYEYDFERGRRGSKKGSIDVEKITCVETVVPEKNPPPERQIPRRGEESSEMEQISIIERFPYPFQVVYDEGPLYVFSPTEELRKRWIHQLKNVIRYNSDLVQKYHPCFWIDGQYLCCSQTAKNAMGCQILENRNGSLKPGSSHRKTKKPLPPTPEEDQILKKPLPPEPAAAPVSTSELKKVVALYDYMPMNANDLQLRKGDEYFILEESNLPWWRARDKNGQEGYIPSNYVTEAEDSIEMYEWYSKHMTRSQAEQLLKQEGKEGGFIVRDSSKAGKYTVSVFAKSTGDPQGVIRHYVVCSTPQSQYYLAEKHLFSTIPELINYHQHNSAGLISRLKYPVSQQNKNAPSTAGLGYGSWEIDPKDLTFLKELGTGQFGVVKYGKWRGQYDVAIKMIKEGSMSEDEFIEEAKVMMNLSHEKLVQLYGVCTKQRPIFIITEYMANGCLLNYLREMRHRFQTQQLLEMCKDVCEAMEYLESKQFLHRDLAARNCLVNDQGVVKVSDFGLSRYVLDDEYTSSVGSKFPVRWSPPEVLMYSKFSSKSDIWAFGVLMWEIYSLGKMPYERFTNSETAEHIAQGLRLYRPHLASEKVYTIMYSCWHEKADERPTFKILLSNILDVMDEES
Sequence of ERK2 (P28482 whole entry, species assumed): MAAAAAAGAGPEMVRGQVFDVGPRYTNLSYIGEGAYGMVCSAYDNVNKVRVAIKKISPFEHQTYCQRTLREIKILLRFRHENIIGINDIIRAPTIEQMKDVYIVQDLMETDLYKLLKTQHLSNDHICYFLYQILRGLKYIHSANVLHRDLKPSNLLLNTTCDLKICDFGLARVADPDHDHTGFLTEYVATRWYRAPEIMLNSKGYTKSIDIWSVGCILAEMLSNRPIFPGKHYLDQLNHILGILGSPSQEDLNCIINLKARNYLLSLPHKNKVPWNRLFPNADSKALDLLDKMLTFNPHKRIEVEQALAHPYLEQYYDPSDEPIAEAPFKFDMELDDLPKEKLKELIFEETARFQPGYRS

SMILES | percentage inhibition of ERK2 (ERK2) [percentage] | percentage inhibition of PKBb (PKBb) [percentage] | percentage inhibition of CHK2 (CHK2) [percentage] | percentage inhibition of CK2 (CK2) [percentage] | percentage inhibition of TBK1 (TBK1) [percentage] | percentage inhibition of Lck (Lck) [percentage] | percentage inhibition of BTK (BTK) [percentage] | percentage inhibition of TrkA (TrkA) [percentage]
c1cc2[nH]nc3c2c(n1)N(C1CCC1)CCC3 [Example 22, 6-cyclobutyl-6,7,8,9-tetrahydro-2H-1,2,5,6-tetraazabenzo[cd]azulene] | 0 | 0 | 11 | 0 | 0 | 0 | 0 | 0
c1cc2[nH]nc3c2c(n1)N(C1CCCC1)CCC3 [Example 23, 6-cyclopentyl-6,7,8,9-tetrahydro-2H-1,2,5,6-tetraazabenzo[cd]azulene] | 0 | 0 | 0 |  | 0 |  | 0 | 0
c1cc2[nH]nc3c2c(n1)N(C1CCOCC1)CCC3 [Example 29, 6-(tetrahydro-2H-pyran-4-yl)-6,7,8,9-tetrahydro-2H-1,2,5,6-tetraazabenzo[cd]azulene] | 0 | 0 | 2 | 0 | 0 | 0 | 0 | 20
CN1CCC(N2Cc3ccccc3-c3n[nH]c4ccnc2c34)CC1 [Example 55] | 0 | 10 | 80 | 11 | 5 | 6 | 0 | 5
CC(C)n1ncc2c1CN(C1CCN(C)CC1)c1nccc3[nH]nc-2c13 [Example 68] | 11 | 9 | 53 | 4 | 5 | 0 | 0 | 9
